Source: ChEMBL document CHEMBL1201862, “PubChem BioAssay data set” (2004)
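Five compound concentrations were applied to cells in 96-well plates for 48 hours; endpoints were derived by simple linear interpolation of the resulting dose-response curve. Abbreviation: GI50, concentration required for 50% inhibition of growth.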 The source made the active and inactive calls. No stated cut-off is given here; in the data, active = GI50 up to about 1.1 µM and inactive = higher.

Tests used:
Assay in all cases: NCI tumour cell line growth inhibition, 48 h
786-0 = test system: 786-0
A498 = test system: A498
A549 = test system: A549
ACHN = test system: ACHN
BT-549 = test system: BT-549
CAKI-1 = test system: CAKI-1
CCRF-CEM = test system: CCRF-CEM
COLO 205 = test system: COLO 205
DU-145 = test system: DU-145
EKVX = test system: EKVX
HCC 2998 = test system: HCC 2998
HCT-116 = test system: HCT-116
HCT-15 = test system: HCT-15
HL-60 = test system: HL-60
HOP-62 = test system: HOP-62
HOP-92 = test system: HOP-92
HT-29 = test system: HT-29
Hs-578T = test system: Hs-578T
IGROV-1 = test system: IGROV-1
K562 = test system: K562
M14 = test system: M14
MCF7 = test system: MCF7
MDA-MB-435 = test system: MDA-MB-435
MDA-N = test system: MDA-N
MOLT-4 = test system: MOLT-4
Malme-3M = test system: Malme-3M
NCI-H226 = test system: NCI-H226
NCI-H522 = test system: NCI-H522
NCI/ADR-RES = test system: NCI/ADR-RES
OVCAR-3 = test system: OVCAR-3
OVCAR-4 = test system: OVCAR-4
OVCAR-5 = test system: OVCAR-5
OVCAR-8 = test system: OVCAR-8
RPMI-8226 = test system: RPMI-8226
RXF 393 = test system: RXF 393
SF-268 = test system: SF-268
SF-295 = test system: SF-295
SK-MEL-5 = test system: SK-MEL-5
SK-OV-3 = test system: SK-OV-3
SN12C = test system: SN12C
SNB-19 = test system: SNB-19
SNB-75 = test system: SNB-75
SR = test system: SR
SW-620 = test system: SW-620
T47D = test system: T47D
TK-10 = test system: TK-10
UACC-257 = test system: UACC-257
UACC-62 = test system: UACC-62
UO-31 = test system: UO-31
KM12 = test system: KM12
LOX IMVI = test system: LOX IMVI
MDA-MB-231 = test system: MDA-MB-231
NCI-H23 = test system: NCI-H23
NCI-H460 = test system: NCI-H460
PC-3 = test system: PC-3
SF-539 = test system: SF-539
SK-MEL-28 = test system: SK-MEL-28
SK-MEL-2 = test system: SK-MEL-2
U-251 = test system: U-251

Measured: GI50

O=[N+]([O-])c1cccc(-c2ccc([C@H]3CC(c4ccc(Cl)cc4)=NN3)o2)c1
inactive: 786-0 14.6 µM | A498 31.6 µM | A549 > 100 µM | ACHN 17.7 µM | BT-549 17.6 µM | CAKI-1 26.1 µM | CCRF-CEM 1.43 µM | COLO 205 > 100 µM | DU-145 15.3 µM | EKVX 70 µM | HCC 2998 16.6 µM | HCT-116 15.2 µM | HOP-62 20.3 µM | HOP-92 17.3 µM | HT-29 21.3 µM | Hs-578T 58.9 µM | IGROV-1 21 µM | K562 19.1 µM | M14 30.1 µM | MCF7 16.3 µM | MDA-MB-435 19.2 µM | MDA-N 24 µM | Malme-3M 15.8 µM | NCI-H226 25.5 µM | NCI-H522 21.2 µM | NCI/ADR-RES 7.83 µM | OVCAR-3 18.9 µM | OVCAR-4 23.2 µM | OVCAR-5 31.7 µM | OVCAR-8 12.3 µM | RPMI-8226 14.3 µM | RXF 393 16.8 µM | SF-268 27 µM | SF-295 44.8 µM | SK-MEL-5 13.8 µM | SK-OV-3 28.8 µM | SN12C 16.7 µM | SNB-19 38.4 µM | SNB-75 14.7 µM | SW-620 19.5 µM | T47D 11.4 µM | TK-10 19.6 µM | UACC-257 31.7 µM | UACC-62 16.3 µM | UO-31 22.1 µM
active: HL-60 0.893 µM | MOLT-4 0.891 µM | SR 0.433 µM
5.15 µM: HCT-15

O=C1CCCC/C1=C(\Br)I
inactive: 786-0 19.6 µM | A498 19.4 µM | A549 23.3 µM | ACHN 16.1 µM | BT-549 17.6 µM | CAKI-1 12.4 µM | CCRF-CEM 1.77 µM | COLO 205 15.1 µM | DU-145 16 µM | EKVX 18.7 µM | HCC 2998 4.95 µM | HCT-116 12 µM | HL-60 2.12 µM | HOP-62 19.2 µM | HOP-92 17.9 µM | HT-29 12.9 µM | Hs-578T 35.4 µM | IGROV-1 9.38 µM | K562 2.69 µM | KM12 17.1 µM | LOX IMVI 16.7 µM | M14 6.78 µM | MCF7 12.8 µM | MDA-MB-231 17.6 µM | MDA-MB-435 15.1 µM | MOLT-4 2.11 µM | Malme-3M 5.5 µM | NCI-H226 23.4 µM | NCI-H23 10.1 µM | NCI-H460 15.3 µM | NCI-H522 1.56 µM | NCI/ADR-RES 19 µM | OVCAR-3 18 µM | OVCAR-4 15.4 µM | OVCAR-5 18.8 µM | OVCAR-8 14.5 µM | PC-3 17.3 µM | RPMI-8226 2.86 µM | RXF 393 15.6 µM | SF-268 9.62 µM | SF-295 17.5 µM | SF-539 18.8 µM | SK-MEL-28 15.7 µM | SK-MEL-2 22.3 µM | SK-MEL-5 17.9 µM | SK-OV-3 22 µM | SN12C 16.9 µM | SNB-19 20.7 µM | SNB-75 16.9 µM | SR 2.67 µM | SW-620 3.39 µM | T47D 7 µM | TK-10 13.9 µM | U-251 18 µM | UACC-257 16.6 µM | UACC-62 15.5 µM | UO-31 17.7 µM
3.4 µM: HCT-15

CCN1CCC(O)(C(C(=O)O)c2ccccc2)CC1 (stereo not given)
> 100 µM: HCT-15
inactive: A498 > 100 µM | A549 > 100 µM | ACHN > 100 µM | BT-549 > 100 µM | CAKI-1 > 100 µM | CCRF-CEM > 100 µM | COLO 205 > 100 µM | DU-145 > 100 µM | EKVX > 100 µM | HCC 2998 > 100 µM | HL-60 > 100 µM | HOP-62 > 100 µM | HT-29 > 100 µM | Hs-578T > 100 µM | IGROV-1 > 100 µM | K562 > 100 µM | KM12 > 100 µM | LOX IMVI > 100 µM | M14 > 100 µM | MCF7 > 100 µM | MDA-MB-231 > 100 µM | MDA-MB-435 > 100 µM | Malme-3M > 100 µM | NCI-H226 > 100 µM | NCI-H23 > 100 µM | NCI-H460 > 100 µM | NCI-H522 > 100 µM | NCI/ADR-RES > 100 µM | OVCAR-3 > 100 µM | OVCAR-4 > 100 µM | OVCAR-5 > 100 µM | OVCAR-8 > 100 µM | PC-3 > 100 µM | RPMI-8226 > 100 µM | RXF 393 > 100 µM | SF-268 > 100 µM | SF-295 > 100 µM | SK-MEL-28 > 100 µM | SK-MEL-2 > 100 µM | SK-MEL-5 > 100 µM | SK-OV-3 > 100 µM | SNB-19 > 100 µM | SNB-75 > 100 µM | SR > 100 µM | SW-620 > 100 µM | T47D > 100 µM | TK-10 > 100 µM | U-251 > 100 µM | UACC-257 > 100 µM | UACC-62 > 100 µM | UO-31 > 100 µM

CCOC(=O)[C@H]1C[C@@H](C(=O)c2ccccc2)N2N=C(c3ccc(Br)cc3)C=C[C@H]12
> 100 µM: HCT-15
inactive: 786-0 > 100 µM | A498 > 100 µM | A549 > 100 µM | ACHN > 100 µM | BT-549 > 100 µM | CAKI-1 > 100 µM | COLO 205 > 100 µM | DU-145 > 100 µM | HCC 2998 > 100 µM | HCT-116 > 100 µM | HOP-62 > 100 µM | Hs-578T > 100 µM | K562 > 100 µM | KM12 > 100 µM | LOX IMVI > 100 µM | M14 > 100 µM | MCF7 > 100 µM | MDA-MB-231 > 100 µM | MDA-MB-435 > 100 µM | MOLT-4 77.6 µM | NCI-H226 > 100 µM | NCI-H23 > 100 µM | NCI-H460 > 100 µM | NCI/ADR-RES > 100 µM | OVCAR-3 > 100 µM | OVCAR-4 > 100 µM | OVCAR-5 > 100 µM | OVCAR-8 > 100 µM | PC-3 > 100 µM | RPMI-8226 > 100 µM | RXF 393 > 100 µM | SF-268 > 100 µM | SF-295 > 100 µM | SK-MEL-28 > 100 µM | SK-MEL-2 > 100 µM | SK-OV-3 > 100 µM | SN12C > 100 µM | SNB-19 > 100 µM | SNB-75 > 100 µM | SR 9.48 µM | SW-620 > 100 µM | T47D > 100 µM | TK-10 > 100 µM | U-251 > 100 µM | UACC-257 > 100 µM | UACC-62 > 100 µM | UO-31 > 100 µM

COC(=O)[C@@H]1N2C(=S)N(c3ccccc3)C(=O)[C@H]2SC1(C)C
> 100 µM: HCT-15
inactive: 786-0 > 100 µM | A498 91.4 µM | A549 > 100 µM | ACHN > 100 µM | BT-549 > 100 µM | CAKI-1 > 100 µM | COLO 205 > 100 µM | DU-145 > 100 µM | EKVX > 100 µM | HCC 2998 > 100 µM | HCT-116 > 100 µM | HOP-62 > 100 µM | HOP-92 55.6 µM | HT-29 > 100 µM | IGROV-1 > 100 µM | KM12 > 100 µM | M14 > 100 µM | MCF7 > 100 µM | MDA-MB-231 > 100 µM | MDA-MB-435 > 100 µM | MDA-N > 100 µM | MOLT-4 > 100 µM | NCI-H226 > 100 µM | NCI-H23 > 100 µM | NCI-H460 > 100 µM | NCI-H522 > 100 µM | NCI/ADR-RES > 100 µM | OVCAR-3 > 100 µM | OVCAR-4 > 100 µM | OVCAR-5 > 100 µM | OVCAR-8 > 100 µM | PC-3 > 100 µM | RPMI-8226 > 100 µM | RXF 393 > 100 µM | SF-268 > 100 µM | SF-295 > 100 µM | SF-539 > 100 µM | SK-MEL-28 > 100 µM | SK-MEL-2 > 100 µM | SK-MEL-5 > 100 µM | SK-OV-3 > 100 µM | SN12C > 100 µM | SNB-19 > 100 µM | SNB-75 > 100 µM | SR 65.6 µM | SW-620 > 100 µM | T47D > 100 µM | TK-10 > 100 µM | U-251 > 100 µM | UACC-257 > 100 µM | UACC-62 > 100 µM | UO-31 > 100 µM
